Molecules are shown by their SMILES. Where “and” joins values, the source holds several entries; their conditions need not be identical. Identical values can stand only once.

For orientation: IC50 means the point on the concentration scale where inhibition reaches its midpoint.

Data set [1] has as its system HepG2 cells. Nature of the data set: Annexin V-FITC/PI double staining, flow cytometry. In kind it is cell-based, human. To be noted: HepG2, 48 h, blank control 5.75%. On the procedure:
(§1) To further evaluate compound 12i-induced HepG2 cell apoptosis, HepG2 cells were treated with this compound (at 0, 2, 4, and 8 μM), followed by staining with Acridine Orange/Ethidium bromide (AO/EB). […] Subsequently, we used Annexin V-FITC/PI double staining to characterize the effect of compound 12i based on the total apoptosis rate of HepG2 cells.
HepG2 cells were inoculated into 6-well plates for 24 h, attached via cell adhesion, and then treated with 12i (0, 2, 4, and 8 μM) for 48 h. The cells were harvested and treated with Annexin V-FITC/PI staining solution, and the data were gathered using a flow cytometer (FACS Calibur, BD, Milpitas, CA, USA).

Data set [2] deals with HepG2 cells. To be noted: HepG2, 2, 4 and 8 μM, 48 h, DCFH-DA.
Description: After the cells were washed with PBS, the supernatant was removed and incubated with 500 μL of 10 μm/L DCFH-DA solution at 25 °C for 20 min, and the data were gathered using a flow cytometer.
After the cells were washed with PBS, the supernatant was removed and incubated with 500 μL of 10 μm/L DCFH-DA solution at 25 °C for 20 min, and the samples were collected and imaged using confocal microscopy.
In data set [3] the test system is HepG2 cells. To be noted: HepG2, 2, 4 and 8 μM, increasing concentration. On the procedure: as §1
Data set [4] deals with HepG2 cells. In words: Mitochondrial membrane potential, JC-1 staining. In kind it is cell-based, human. An excerpt:
MMP depolarization is one of the landmark events of apoptosis. To investigate the impact of 12i on MMP depolarization in HepG2 cells, we used 5,5′,6,6,6,6′-tetrachloro-1,1′,3,3′-tetraethylioiodine carbocyan (JC-1) staining. When the mitochondrial membrane potential is high, JC-1 aggregates in the substrate to form a polymer (J-aggregates), which produces red fluorescence. When the mitochondrial membrane potential is low, JC-1 cannot accumulate in the mitochondrial matrix and exists as a monomer to produce green fluorescence.
HepG2 cells were inoculated into 6-well plates for 24 h, attached via cell adhesion, and then treated with 12i (0, 2, 4, and 8 μM) for 48 h. The cells were cleaned with PBS and treated with JC-1 solution at 25 °C for 20 min, and the data were gathered using a flow cytometer.
HepG2 cells were inoculated into 6-well plates for 24 h, attached via cell adhesion, and then treated with 12i (0, 2, 4, and 8 μM) for 48 h. The cells were cleaned with PBS and treated with JC-1 solution at 25 °C for 20 min, and the samples were collected and imaged using confocal microscopy.

A further data set concerns human hepatic LO2 cells. On the procedure: (§2) These cell lines were cultured in Dulbecco's Modified Eagle Medium containing 10% (v/v) fetal bovine serum (FBS, Wisent) and 1% (v/v) Penicillin-Streptomycin Solution mixture (Beyotime, Shanghai, China) at 37 °C under 5% CO2. An MTT assay evaluated the cytotoxicity of lupeol derivatives toward the A549, MCF-7, HepG2, and LO2 cell lines. The cells were inoculated into 96-well plates (3 × 10^3 cells/well) and cultured for 24 h at 37 °C in 5% CO2. After that, a gradient concentration of the test drug was added to continue the incubation for 48 h. Subsequently, the MTT solution continued to incubate with the cells for 4 h. Afterward, the upper waste layer was discarded, and DMSO was added ([…], Tianjin, China). After the formazan completely dissolved, the absorbance of each well at 490 nm was measured with a microplate reader. The mean values were derived from three independent experiments.

Data set [5] deals with P-Akt, P-PI3K, P-mTOR in HepG2 cells. To be noted: HepG2, 2, 4 and 8 μM, 48 h, Western blot, dose-dependent. On the procedure: Therefore, Western blotting was conducted to determine the expression of the key proteins Akt, P-Akt, PI3K, P-PI3K, mTOR, and P-mTOR.
(§3) HepG2 cells were seeded in 6-well plates at a density of 1 × 10^6 overnight and treated with 12i (2, 4, and 8 μM) for 48 h. They were then washed twice with cooled PBS to remove the medium and lysed using a lysis buffer containing RIPA (Beyotime, Shanghai, China). The protein levels were quantified using a bicinchoninic acid protein assay kit (Beyotime, Shanghai, China). The proteins were separated via SDS-PAGE electrophoresis and transferred to PVDF membranes (Beyotime, Shanghai, China). After blocking with 5% skim milk for 2 h, the membranes were incubated with the primary antibody overnight at 4 °C, followed by 2 h with the specific secondary antibody. The antibodies were sourced commercially, including Bax (5023T, Cell Signaling Technology, Danvers, MA, USA), Bcl2 (3498T, Cell Signaling Technology, Danvers, MA, USA), Caspase-7 (12827T, Cell Signaling Technology, Danvers, MA, USA), Caspase-9 (9508T, Cell Signaling Technology, Danvers, MA, USA), Cleaved-Caspase-7 (8438T, Cell Signaling Technology, Danvers, MA, USA), Cleaved-Caspase-9 (7237T, Cell Signaling Technology, Danvers, MA, USA), GAPDH (2118T, Cell Signaling Technology, Danvers, MA, USA), PI3K (4249T, Cell Signaling Technology, Danvers, MA, USA), p-PI3K (4228T, Cell Signaling Technology, Danvers, MA, USA), AKT (4691T, Cell Signaling Technology, Danvers, MA, USA), p-AKT (4060T, Cell Signaling Technology, Danvers, MA, USA), mTOR (2972T, Cell Signaling Technology, Danvers, MA, USA). Immunoreactive bands were visualized using BeyoECL Plus (Beyotime, Shanghai, China) and scanned in a ChemiDoc MP Imaging System (Bio-Rad, Shanghai, China).
Background: Immunoblotting shows a protein as a band on a membrane.

Data set [6] has as its system Bax, Bcl-2, cleaved caspase-7, cleaved caspase-9 in HepG2 cells. To be noted: HepG2, 2, 4 and 8 μM, 48 h, Western blot. As to the method: The GAPDH expression level was used as an internal control group.
as §3

The subject of data set [7] is human hepatocarcinoma HepG2. Nature of the data set: MTT antiproliferative assay, HepG2. In kind it is cell-based. As to the method:
as §2
Background: Tetrazolium dyes change colour on reduction, which living cells bring about.

Data set [8] deals with human breast cancer MCF-7. Nature of the data set: MTT antiproliferative assay, MCF-7. In kind it is cell-based. To be noted: 48 h, mean ± SD, three independent experiments. As to the method: as §2
For the next data set, the system named is human lung cancer A549. In words: MTT antiproliferative assay, A549. The class given is cell-based. To be noted: 48 h, mean ± SD, three independent experiments. On the procedure: as §2

On to `C=C(C)C1CCC2(C)CCC3(C)C(CCC4C5(C)CCC(OC(=O)NCCNC(=O)CN6C(=O)SC(=CC(C)C)C6=O)C(C)(C)C5CCC43C)C12` (centres unmarked) [Compound 12i, Lupeol-3-[(1-Ethylenediaminyl)-4]-5-(2-Methylpropylidene)-2,4-Thiazolidinedione], for which the figures for the total apoptosis rate in the data set with HepG2 cells [1] (2 μM), with HepG2 cells [1] (4 μM) and in the data set with HepG2 cells [1] (8 μM) were 11.46%, 22.40% and 60.50%, respectively. Moreover, the ROS production result in the data set with HepG2 cells [2] is given as “induces ROS production dose-dependently”. The “morphological variations after AO/EB staining” value in the data set with HepG2 cells [3] is “the green fluorescence gradually weakened and turned orange–red”. For the same molecule, the “effect on mitochondrial membrane potential (Δψm)” value with HepG2 cells [4] (HepG2, 2, 4 and 8 μM, JC-1 fluorescence microscopy) is given as “significantly reduce Δψm”. In the data set on HepG2 cells [4] (HepG2, 48 h, 8 μM, blank control 1.95%), the “monomer rate of JC-1” value stood at 35.8%. Further, the “cytotoxicity to human hepatic cell LO2 (in words)” value in the data set on human hepatic LO2 cells is given as “weakly cytotoxic”. The half-inhibitory concentration (IC50) in the data set on human hepatic LO2 cells (read-out: IC50 LO2, MTT, 48 h, mean ± SD, three independent experiments) is 29.2 ± 0.53 µM; in data set [7] (MTT, 48 h, mean ± SD, three independent experiments), 4.4 ± 0.02 µM; in [8], 8.74 ± 0.34 µM; in the data set with human lung cancer A549, 10.1 ± 0.62 µM. For the same molecule, in [5], the “phosphorylation level of P-Akt” value was “reduce the phosphorylation levels”. Besides, in data set [5], the “phosphorylation level of P-PI3K” value is listed as “reduce the phosphorylation levels”. The “phosphorylation level of P-mTOR” value in data set [5] is “reduce the phosphorylation levels”. Also, the Bax expression result in [6] (GAPDH internal control) is reported as “upregulate”. Also, in data set [6] (GAPDH internal control), the Bcl-2 expression result was “downregulate”. For the same molecule, the “cleaved caspase-7 expression level” value in data set [6] (dose dependently) is “activated”. For the same molecule, the “cleaved caspase-9 expression level” value in [6] (dose dependently) was “activated”. Also, the “potency against HepG2 relative to lupeol” value in data set [7] (HepG2, IC50 lupeol / IC50 compound) is 9.9 fold and 9.91 fold.

These data come from paper PMC11510666, “Thiazolidinedione-Conjugated Lupeol Derivatives as Potent Anticancer Agents Through a Mitochondria-Mediated Apoptotic Pathway” (Molecules, 2024).
